Assay results as given in patent US9855253B2, “Pharmaceutical composition containing FK506 derivative for treating fungal infection caused by genus Cryptococcus and genus Candida and use thereof” (INTRON BIOTECHNOLOGY CO., LTD., priority 2014, dated 2018).

Legend:
[1] = tested on: Cryptococcus neoformans; assay: standard agar diffusion method (paper disk), antifungal activity; assay type: cell-based; conditions: for zone of inhibition at 10 µg/mL: Cryptococcus neoformans treated with 10 μg/ml, 6 mm disk, PDA medium, incubated 2-3 days, read-out: diameters of the inhibition zones; for inhibition zones at higher concentrations (FIGS. 1 and 2): concentrations of 10 μg/ml and 40 μg/ml
Experimental: The antifungal activities of FK506 derivatives against fungi such as Cryptococcus neoformans and Candida albicans, which are human pathogenic yeasts, were analyzed by the standard agar diffusion method (Murray et al., 1995 Manual of clinical microbiology (6th ed.), Washington, ASM Press, pp. 1275-1294), 100 μL of a standardized inoculam containing 10^7 CFU/ml, of a fungal suspension was uniformly plated in a Petri dish containing 20 mL of potato-dextrose agar (PDA) medium, and was dried for 5 minutes. A sterilized Whatman No. 1 filter paper disk baying a diameter of 6 mm was wet with each of 0.1 μg, 1 μg, 10 μg and 40 μg/ml of FK506 derivative dissolved in the same solvent as that used for extraction. As a control, an untreated disk and a disk wet with FK506 were used. Each plate was incubated at 30° C. and 37° C. for 2-3 days, and then the antifungal activity of each FK506 derivative was evaluated by comparing the diameters of inhibition zones against Cryptococcus neoformans and Candida albicans. The experiment for analysis of the antifungal activity was repeated at least three times. […] The diameters of the inhibition zones are shown in units of mm.

[2] = tested on: Candida albicans; assay: serum sensitivity of Candida albicans as a function of time (FIG. 3); assay type: cell-based; conditions: result in words
From the text: FIG. 3 is a graph showing the inhibitory activity of a composition according to one embodiment of the present invention against Candida albicans as a function of time. FIG. 3 is a graph showing an increased or decreased change in the serum sensitivity of Candida albicans for 31-O-demethyl-FK506 that is FK506 derivative. Lower serum sensitivity with the passage of time indicates higher antifungal activity.

[3] = background statement; result in words; cited from earlier work

Compound | zone of inhibition at 10 µg/mL [1] | inhibitory activity against Cryptococcus neoformans (FIGS. 1 and 2) ([1]; result in words) | inhibitory activity against Candida albicans compared with FK506, late time points (FIG. 3) ([2]; from 6 hours after treatment) | inhibitory activity against Candida albicans compared with FK506 (FIG. 3) ([2]; serum sensitivity over time) | inhibitory activity against Cryptococcus neoformans compared with FK506 ([1]; comparison with FK506, result in words) | inhibition zones at higher concentrations (FIGS. 1 and 2) ([1]; result in words) | toxicity or side effects relative to Cyclosporine A [3]
C=CC[C@@H]1/C=C(\C)C[C@H](C)C[C@H](OC)[C@H]2O[C@@](O)(CC(=O)N3CCCC[C@H]3C(=O)O[C@H](/C(C)=C/C3CC[C@@H](O)[C@H](OC)C3)[C@H](C)[C@H](O)CC1=O)[C@H](C)C[C@@H]2OC (stereo partly shown) [Formula (II), 9-deoxo-FK506] | 21.6 mm | had inhibitory activity |  |  |  |  | 
C=CC[C@@H]1/C=C(\C)C[C@H](C)C[C@H](OC)[C@H]2O[C@@](O)(C(=O)C(=O)N3CCCC[C@H]3C(=O)O[C@H](/C(C)=C/C3CC[C@@H](O)[C@H](O)C3)[C@H](C)C(O)CC1=O)[C@H](C)C[C@@H]2OC (stereo in doubt) [Formula (I), 31-O-demethyl-FK506] | 26.4 mm | had inhibitory activity | maintained inhibitory activity higher than FK506 | almost equal to that of FK506 | inhibitory activity higher than FK506 | large inhibition zones | 
C=CC[C@@H]1/C=C(\C)C[C@H](C)C[C@H](OC)[C@H]2O[C@@](O)(CC(=O)N3CCCC[C@H]3C(=O)O[C@H](/C(C)=C/C3CC[C@@H](O)[C@H](O)C3)[C@H](C)[C@H](O)CC1=O)[C@H](C)C[C@@H]2OC (stereo partly shown) [Formula (III), 9-deoxo-31-O-demethyl-FK506] | 21.6 mm | had inhibitory activity |  |  |  | large inhibition zones | 
C=CC[C@@H]1/C=C(\C)C[C@H](C)C[C@H](OC)[C@H]2O[C@@](O)(C(=O)C(=O)N3CCCC[C@H]3C(=O)O[C@H](/C(C)=C/[C@@H]3CC[C@@H](O)[C@H](OC)C3)[C@H](C)[C@@H](O)CC1=O)[C@H](C)C[C@@H]2OC [FK506] | 16.8 mm |  |  |  |  |  | comparable to Cyclosporine A
